{"source": "patent US8658672B2", "about": "“HIF-1α activating agent” (University of Seoul Foundation of Industrial and Academic …, priority 2006, dated 2014)", "key": {"[1]": {"test_system": "HIF-1α", "assay": "In vivo HIF-1α ubiquitination in HepG2 cells (Western blotting)", "assay_type": "cell-based, human", "details": "normoxic condition, 6 hours, CQ 100 μM, TPEN 5 μM"}, "[2]": {"details": "cited from earlier work"}, "[3]": {"molecular_target": "FIH-1 (Homo sapiens, UniProt Q9NWT6)", "sequence (Q9NWT6 whole entry, the tested form may be a part)": "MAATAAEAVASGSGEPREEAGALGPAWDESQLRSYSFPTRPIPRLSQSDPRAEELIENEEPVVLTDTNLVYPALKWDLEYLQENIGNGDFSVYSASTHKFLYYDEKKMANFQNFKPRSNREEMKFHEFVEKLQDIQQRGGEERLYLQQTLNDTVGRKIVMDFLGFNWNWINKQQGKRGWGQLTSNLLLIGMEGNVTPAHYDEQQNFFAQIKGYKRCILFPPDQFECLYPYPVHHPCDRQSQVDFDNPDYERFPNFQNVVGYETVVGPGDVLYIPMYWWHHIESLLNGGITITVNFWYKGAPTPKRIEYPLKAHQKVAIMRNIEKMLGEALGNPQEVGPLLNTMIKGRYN", "assay": "In vitro FIH-1 activity (capture of radio-labeled HIF-1α by GST-CBP)", "assay_type": "biochemical", "set-up": "histidine tag; made in house; host or cells: E. coli", "details": "CQ 10 μM and 50 μM; interaction between HIF-1α and CBP as readout", "experimental": "The human FIH-1 gene (AF395830) was cloned into pET28a vector (Novagen, USA) and FIH-1 was overexpressed in E. coli as a histidine-tagged fusion protein and purified by Ni-affinity chromatography. The fusion protein was purified by gel-filtration chromatography (Hi-Load Superdex 200) and concentrated by ultrafiltration (Choi et al., Mol Pharmacol 68:1803-1809, 2005).\nThe resin-bound GST-CBP N-domain (amino acids 1-450) (Kamei et al., Cell 85:403-414, 1996) was then added to 1 μg of each mixture in 500 μl of binding buffer (200 mM Tris-HCl (pH 8.0), 150 mM NaCl, 20 μM ZnCl2, 0.5 mM DTT) and incubation continued for one hour at 4° C. Glutathione-uniflow resin bound protein was washed four times with 1 ml of 0.1% Nondiet P-40 containing binding buffer, and visualized by SDS-PAGE by eluting using SDS sample buffer (Dann et al., Proc Natl Acad Sci USA 99:15351-15356, 2002). The present inventors substituted the asparagine-803 residue of HIF-1α with alanine to generate HIF-1α mutant [HIF-1α-C(N803A)], followed by investigation on FIH-1 activity by the same manner as described above.\nRadio-labeled HIF-1α was reacted with the purified recombinant FIH-1, in the presence or absence of CQ or TPEN. FIH-1 was expected to […] the asparagine-803 residue of HIF-1α and thus inhibit the interaction with CBP binding to HIF-1α transactivation domain (Mahon, P. C. et al., Genes Dev. 15, 2675-2686, 2001; Dannm C. E. R., et al., Proc. Natl. Acad. Sci. USA 99, 15351-15356, 2002; Lando, D., et al., Science 295, 858-861, 2002; Freedman, S. J. et al., Proc. Natl. Acad. Sci. USA 99, 5367-5372, 2002)."}}}
{"smiles": "c1ccc(CN(CCN(Cc2ccccn2)Cc2ccccn2)Cc2ccccn2)nc1", "note": "[TPEN, tetrakis-(2-pyridylmethyl)ethanediamine]", "values": [{"measurement": "HIF-1α ubiquitination in cells", "setting": "[1]", "result": "inhibited HIF-1α ubiquitination"}, {"measurement": "pKa value, Ca2+", "setting": "[2]; Ca^2+", "result": 3}, {"measurement": "pKa value, Fe3+", "setting": "[2]; Fe^3+", "result": 14.4}, {"measurement": "pKa value, Zn2+", "setting": "[2]; Zn^2+", "result": 15.4}, {"measurement": "FIH-1 activity", "setting": "[3]", "result": "did not reduce FIH-1 activity"}]}
